Data taken from patent US20260072027A1, “Peptides And Method” (Queen Mary University of London, priority 2022, published 2026).
Entries after “also recorded” stand apart in the source; their conditions may differ. Where no end group is shown, it is not given here.

Key:
[1] = test system: CD4+ and CD8+ T-cells and IgG autoantibodies; assay: Overlap of CD4+, CD8+ and IgG antibody responses (Venn analysis); type: cell-based, human; conditions: type 1 diabetes; for patients with overlapping (concordant) CD4+ and CD8+ responses to the peptide: Study cohort 2, SI >1
Source text: FIG. 13. Venn diagrams of CD4^+, CD8^+ and antibody response to oxPTM-INSPs. Panels a, b, and c show the overlap between IgG autoantibody and T-cell (CD4^+ and CD8^+) responses specific to oxPTM-INSP-3 (a), Nt-INSP-4 (b) and oxPTM-INSP-6 (c). Panels d, e, and f display the overlap between T-cell responses to the three insulin peptides and IgG to oxPTM-INS modified by hydroxyl radical (^●OH-INS). […] There is concordance between reactivity to oxPTM-INS and CD4^+ and CD8^+ reactivity for all three tested peptides (7/17, 8/18 and 8/18 for oxPTM-INSP-3, Nt-INSP-4 and oxPTM-INSP-6, respectively). The stimulatory index >1 was used for definition of positive T-cell response.
Correlation between T-cell stimulation and antibody response. Subjects evaluated for T-cell stimulation were also tested for antibody reactivity to either oxPTM-INSPs or oxidised intact insulin (oxPTM-INS) to assess correlations between humoral and cellular responses (FIG. 11-e-f). In study cohort 2, antibody reactivity to oxPTM-INSP-6 was the highest as observed in the study cohort 1, with 11/18 (61.1%) binding to at least one oxPTM-INSP-6 derivatives (p<0.001 oxPTM-INSP-6 vs. Nt-INSP-6). Detailed analysis of autoantibody response in this cohort is described in the ESM (ESM results Antibody binding to oxPTM-INSPs in Study cohort 2).
We then analysed the extent of correlation between CD4^+, CD8^+ and IgG antibody responses. […] The CD4^+ T cell response to Nt-INSP-4 frequently overlapped with CD8^+ (13/18 [72.2%]), and to a lesser extent to antibodies (7/18 [38.8%]). […] CD4^+ response to oxPTM-INSP-6 was linked to both CD8^+ and/or antibodies: […] patients had concordant CD4^+ and CD8^+ responses, while 9/18 (50%) patients had concordant CD4^+ and antibody responses. […] CD4^+ T-cell stimulation to Nt-INSP-4, oxPTM-INSP-6 and oxPTM-INSP-3 was associated with antibody reactivity to oxPTM-INS in 8/18 (44.4%), 8/18 (44.4%) and 7/18 (38.9%) type 1 diabetes patients.

serum IgG autoantibodies = assay: ELISA for autoantibody detection: serum antibody binding to native and oxPTM insulin peptides; parameters: species or system human
In short: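 Plates coated overnight at 4 °C with native or HOCl/•OH-oxidised insulin peptides (10 μg/ml, carbonate buffer pH 9.6), blocked with 5% BSA, incubated 2 h with sera at 1:200, then probed with anti-human IgG-HRP and developed with TMB, read at 450 nm. Positivity cut-off: healthy-control mean O.D. plus 3×SEM.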

[2] = Study cohort 1, in house modifications

## LVEALYLVCGERGFFYTPKT [insulin B:11-30 native peptide]
[1]; Study cohort 2
  concordance between reactivity to oxPTM-INS and CD4+ and CD8+ reactivity (patients/patients): 8/18
  patients with CD4+ T-cell stimulation associated with antibody reactivity to oxPTM-INS: 44.4%
  patients with CD4+, CD8+ T-cells to the peptide and autoantibodies to oxPTM-INS simultaneously: 27.8%
  patients with concordant CD4+ and antibody responses to the peptide: 38.8%
  patients with concordant CD4+, CD8+ and IgG antibody response to the peptide: 22.2%
[1]
  patients with overlapping (concordant) CD4+ and CD8+ responses to the peptide: 72.2%
Serum IgG autoantibodies; [2]
  % binders, Healthy controls: 20%
  Mean ± SEM (absorbance, OD), Healthy controls: 0.306 ± 0.032
Serum IgG autoantibodies; Study cohort 1, in house modifications, cut-off = mean of healthy controls to Nt-INSP plus 3 SEM
  % binders, Type 1 diabetes: 50%
Serum IgG autoantibodies; Study cohort 1 sera, in house modifications
  Mean ± SEM (absorbance, OD), Type 1 diabetes: 0.469 ± 0.047
Serum IgG autoantibodies; Study cohort 2, N = 18
  type 1 diabetes binders (IgG autoantibody reactivity): 38.9%

## oxPTM-INSP-3: oxidised forms of insulin peptide 3 (A:12-21), in house oxidised or in silico derivatives (SLYQLENYCN; not fully specified (N-terminus); also: oxidised forms, in house oxidised or in silico derivatives, modified residues not defined)
[1]; Study cohort 2
  concordance between reactivity to oxPTM-INS and CD4+ and CD8+ reactivity (patients/patients): 7/17
  patients with CD4+ T-cell stimulation associated with antibody reactivity to oxPTM-INS: 38.9%
  patients with CD4+, CD8+ T-cells to the peptide and autoantibodies to oxPTM-INS simultaneously: 22.2%
  patients with concordant CD4+, CD8+ and IgG antibody response to the peptide: 5.5%
[1]
  patients with overlapping (concordant) CD4+ and CD8+ responses to the peptide: 50.0%
Serum IgG autoantibodies; ELISA
  Antibody reactivity of serum samples (in words): High background binding in healthy controls; also recorded: high background binding of healthy controls
